# Patent US20240261291A1, “Ophthalmic Compositions and/or Methods for Presbyopia, Mydriasis and/or Ocular Discomfort Management” (Brien Holden Vision Institute Limited, priority 2021, published 2024)
# Columns and labels:
# [1] = test system: pupillary diameter of the eye; assay: Reversal of Tropicamide 1% mydriasis by caffeine 2.0 w/v % in saline, left eye only, person (Grand Seiko autorefractor); format: in vivo, human; settings: for Pupillary diameter Left eye: given 50 mins after Tropicamide 1%
# Experimental: FIG. 4 illustrates that difference in pupil diameter in the right and left eyes of an individual, wherein Tropicamide 1% was instilled in both eyes and approximately 50 minutes later, an ophthalmic composition comprising Caffeine at 2 w/v. % was instilled in the left eye only.
# The following Table 3 illustrates the pupil diameter of a person. An aqueous solution of 1% Tropicamide was instilled in both eyes. Pupillary diameter was measured over a 15 second interval with a Grand Seiko autorefractor with the individual fixating at an object positioned 1 meter away. Pupillary diameter was dynamically sampled at multiple time points over the 15 second interval. Pupillary diameters for both eyes were measured prior to instillation (baseline), soon after instillation of 1% Tropicamide and then 20 minutes and 50 minutes post instillation. […] At this time point, a single drop (0.05 mL) of 2.0 w/v % Caffeine in Saline (0.9 wt. % NaCl) (composition 1) was instilled in the left eye only. The individual was monitored 30 minutes, 60 minutes, 2 hrs, 4 hrs and 6.5 hrs from instillation of Caffeine.
# FIG. 4 illustrates the difference in pupillary diameter between the right and left eyes 4 hrs from the instillation of Tropicamide 1% in both eyes and […] from instillation of Caffeine 2 w/v % in the left eye.
# [2] = test system: pupillary diameter of the eye; assay: Pupillary diameter over 2 hours after a single eye drop of caffeine 2 wt. % in water, 5 individuals (Grand Seiko autorefractor); format: in vivo, human; settings: for average decrease in pupillary diameter compared to baseline: 5 individuals; for maximal decrease in pupillary diameter: largest among individuals
# Experimental: FIG. 1 is a schematic of the pupil diameter of eyes prescribed with caffeine 2% over time.
# FIG. 1 illustrates the baseline pupillary diameter and the pupillary diameter over 2 hours in a group of 5 individuals (3 males and 2 females, age ranging from 31 to 45 yrs) prescribed with an ophthalmic composition comprising caffeine. A topical ophthalmic composition comprising caffeine 2 wt. % in water was instilled (as a single eye drop in the range of from 0.025 mL to 0.075 ml, such as an average single drop size of about 0.05 mL) in one eye of each of the individuals. Pupillary diameter at baseline and at subsequent time points was captured using a Grand Seiko autorefractor for 11 secs and data summarized. The room illumination was standardized at 150 to 200 lux. As observed from FIG. 1, there was a decrease in pupillary diameter post instillation. On average, compared to baseline, the decrease in pupillary diameter at 30 mins and 1 hr post instillation was 0.3 mm and was approximately 0.2 mm at 2 hrs. There was some variation between the various individuals, however the maximal […] in pupillary diameter at 30 mins was 0.4 mm, was approximately 0.8 mm at 1 hr and was approximately 0.6 mm at 2 hrs. Such an ophthalmic composition, as disclosed herein, can be used according to the methods provided herein to reduce the pupillary diameter of a treated eye of a subject and be effective in treating or managing symptoms related to presbyopia and/or mydriasis and/or eyes with disorders requiring light modulation such as one or more of vision disturbances.
compound,measurement,setting,value
"Cn1c(=O)c2c(ncn2C)n(C)c1=O [Caffeine, caffeine (1,7 methylxanthine)]",Difference in pupillary diameter (Right − Left),"[1]; 30 mins post instillation of Caffeine 2 w/v % in left eye, both eyes Tropicamide 1%",0.5 mm
same,Difference in pupillary diameter (Right − Left),"[1]; 60 mins post instillation of Caffeine 2 w/v % in left eye, both eyes Tropicamide 1%",0.7 mm
same,Difference in pupillary diameter (Right − Left),"[1]; 2 hrs post instillation of Caffeine 2 w/v % in left eye, both eyes Tropicamide 1%",0.8 mm
same,difference between the pupils,"[1]; at 1 and 2 hours following instillation of Caffeine in the left eye, both eyes Tropicamide 1%",approximately 0.8 mm
same,left eye pupil diameter,"[1]; left eye (Tropicamide 1% then Caffeine 2 w/v %), 6.5 hrs from the baseline visit, returned to normal",3.8 mm
same,Pupillary diameter Left eye,"[1]; left eye, 30 mins post instillation of Caffeine 2 w/v %",6.8 mm
same,Pupillary diameter Left eye,"[1]; left eye, 60 mins post instillation of Caffeine 2 w/v %",6.5 mm
same,Pupillary diameter Left eye,"[1]; left eye, 2 hrs post instillation of Caffeine 2 w/v %",6.3 mm
same,left eye pupillary diameter,"[1]; left eye, 3 hrs from instillation of Caffeine 2 w/v %, 4 hrs from Tropicamide 1% (FIG. 4)",5.9 mm
same,average decrease in pupillary diameter compared to baseline,"[2]; 30 mins post instillation, 150 to 200 lux",0.3 mm
same,maximal decrease in pupillary diameter,[2]; 30 mins,0.4 mm
same,average decrease in pupillary diameter compared to baseline,[2]; 1 hr post instillation,0.3 mm
same,maximal decrease in pupillary diameter,[2]; 1 hr,approximately 0.8 mm
same,average decrease in pupillary diameter compared to baseline,[2]; 2 hrs post instillation,approximately 0.2 mm
same,maximal decrease in pupillary diameter,[2]; 2 hrs,approximately 0.6 mm
